Data published in PubChem BioAssay (NCI).
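Cells were grown in 96-well plates and exposed to each compound for 48 hours at five concentrations; endpoints were interpolated linearly between bracketing concentrations, or set to the highest concentration if not reached. TGI: concentration producing complete growth inhibition.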

These compounds were tested on SR leukemia (assay: growth of human tumour cells (NCI), 48 h).
Work on CCN(CC)C(=O)Cn1c(C)cc2ccccc21 yielded a TGI of over 100 µM.
CC1(C)NC2C(=O)c3c([nH]c4ccccc34)[C@]3(C)CCC1CC23 (some centres undefined) showed a TGI of over 100 µM.
Compound COc1cc(/C=C2\C(=O)N(c3ccccc3)C(c3ccccc3)S2(=O)=O)cc(OC)c1OC (centres undefined) has a TGI of over 100 µM.
In the case of COc1ccc2ccccc2c1/C=C/C(=O)c1ccccc1, the TGI is reported as 2.55 µM.
Work on C[C@]12CCC(=O)O[C@H]1CCCCO2 yielded a TGI of over 100 µM.
Work on Cc1nc(-c2cc3cc([N+](=O)[O-])ccc3oc2=O)cs1 yielded a TGI of over 100 µM.
CC(C)=CCC/C(C)=C/C=C/C(C)=C/C=C/C(C)=C/C=C/C=C(C)/C=C/C=C(C)/C=C/[C@H]1C(C(C)(C)O)CC[C@]1(C)O (some centres undefined) showed a TGI of 54.4 µM.
Compound O=C1C(CN2CCCCC2)CCC1CN1CCCCC1 (centres undefined) has a TGI of 3.75 µM.
For CC1=NNC(N)=N/C1=C\C(Sc1ccc(Cl)cc1)c1ccc([N+](=O)[O-])cc1 (centres undefined), the TGI was over 100 µM.
In the case of c1ccc2c(c1)ccn2CCc1c[nH]c2ccccc12, the TGI is reported as over 10 µM.
Compound CC(C)[Si](OC1=C(C(=O)N(C)c2cccc(Cl)c2)CCCC1)(C(C)C)C(C)C has a TGI of 42.5 µM.
For Cc1ccc([N+](=O)[O-])cc1S(=O)(=O)Nc1ccc(C2=NNC(c3ccccc3)C2)cc1 (centres undefined), the TGI was 48.7 µM.
COc1cc(C(=O)N(Cc2cccnc2)C(=S)N(Cc2cccnc2)C(=O)c2cc(OC)c(OC)c(OC)c2)cc(OC)c1OC was tested, and the TGI was over 100 µM.
With COc1cc(CNCc2cc(OC)c(OC)c(OC)c2)cc(OC)c1OC the TGI was over 9.12 µM.
With Cc1ccc2c(c1)C(C(=O)N[C@@H]1C(=O)N3[C@@H]1SC(C)(C)[C@@H]3C(=O)O)OCCC2 (some centres undefined) the TGI was over 100 µM.
O=Cc1ccc2c(c1)CC1(Cc3ccccc3C1)C2 was tested, and the TGI was 18.4 µM.
In the case of O=C(N/N=C\c1cccc2c([N+](=O)[O-])cccc12)Nc1ccccc1, the TGI is reported as 43.3 µM.
In the case of CC(=O)OCC12C(=O)C[C@@H](C)C3(CC(c4ccoc4)OC3=O)C1CCC(OC(C)=O)C21CO1 (some centres undefined), the TGI is reported as over 100 µM.
CON(C)C(=O)CNC(=O)OCC1c2ccccc2-c2ccccc21 was tested, and the TGI was 69.6 µM.
Compound O=C(NNC(=S)Nc1cccc(Cl)c1)c1cc(-c2ccccc2)nc2ccccc12 has a TGI of 49.9 µM.
In the case of CCOC(=O)C(=Cc1[nH]c2ccccc2c1-c1c[nH]c2ccccc12)C(=O)OCC, the TGI is reported as 32.7 µM.
Compound Cc1cn(C2CC(N(O)Cc3ccccc3)C(CO[Si](C)(C)C(C)(C)C)O2)c(=O)[nH]c1=O (centres undefined) has a TGI of 89.4 µM.
In the case of O=C1/C(=N/O)Cc2c(Br)ccc(Br)c21, the TGI is reported as 74.4 µM.
With CSc1ncnc2c1ncn2C1CC(Oc2ccc(C)cc2)C(COc2ccc(C)cc2)O1 (centres undefined) the TGI was over 100 µM.
Cc1ccc(N=Nc2c(O)ccc3cc(S(=O)(=O)O)cc(S(=O)(=O)O)c23)cc1 gave a TGI of over 100 µM.
With COc1ccc(C2OC[C@H]3O[C@@H](OCc4ccccc4)[C@H](O)[C@@H](O)[C@@H]3O2)cc1 (some centres undefined) the TGI was over 100 µM.
In the case of O=C(O)Cc1cccc2c(=O)c3ccccc3oc12, the TGI is reported as over 100 µM.
Compound O=C(O)c1ccc([N+](=O)[O-])c2cc3cnccc3nc12 has a TGI of over 100 µM.
CCOC(=O)N/N=C(/N)c1cccc([N+](=O)[O-])c1 gave a TGI of over 100 µM.
In the case of Cc1cc(S(=O)(=O)N=C2N(Cc3ccccc3)CCN2Cc2ccccc2)c(S)cc1Cl, the TGI is reported as over 100 µM.
Oc1ccc(-c2nc(-c3cccnc3)c(-c3ccc(Cl)cc3)[nH]2)cc1 gave a TGI of 44.1 µM.
CCCN1CCC(=O)N(CCC(F)(F)C(F)(F)C(F)(F)C(F)(F)C(F)(F)C(F)(F)F)C1=S showed a TGI of over 100 µM.
CSc1ccc2c(cc1=O)[C@@H](NC(=O)c1ccc(N)cc1)CCc1cc(O)c(O)c(O)c1-2 was tested, and the TGI was over 100 µM.
Compound CN1CCC(O)(C(C)(C)C)CC1 has a TGI of over 100 µM.
With Cn1cc(NC(=O)c2cc(NC(=O)CN=C(N)N)cn2C)cc1C(=O)NCCC(=N)N the TGI was over 100 µM.
With N=C(N)c1ccc(C(NC(=O)CNS(=O)(=O)c2ccc3ccccc3c2)P(=O)(Oc2ccccc2)Oc2ccccc2)cc1 (centres undefined) the TGI was over 100 µM.
With Cn1c2c(c3ccccc31)CC1c3c(c4ccccc4n3C)CC21 (centres undefined) the TGI was over 100 µM.

What follows are compounds tested on TK-10 renal (assay: growth of human tumour cells (NCI), 48 h).
With CCN(CC)C(=O)Cn1c(C)cc2ccccc21 the TGI was over 100 µM.
CC1(C)NC2C(=O)c3c([nH]c4ccccc34)[C@]3(C)CCC1CC23 (some centres undefined) gave a TGI of over 100 µM.
COc1cc(/C=C2\C(=O)N(c3ccccc3)C(c3ccccc3)S2(=O)=O)cc(OC)c1OC (centres undefined) was tested, and the TGI was over 100 µM.
COc1ccc2ccccc2c1/C=C/C(=O)c1ccccc1 gave a TGI of 7.45 µM.
C[C@]12CCC(=O)O[C@H]1CCCCO2 gave a TGI of over 100 µM.
Cc1nc(-c2cc3cc([N+](=O)[O-])ccc3oc2=O)cs1 was tested, and the TGI was over 100 µM.
CC(C)=CCC/C(C)=C/C=C/C(C)=C/C=C/C(C)=C/C=C/C=C(C)/C=C/C=C(C)/C=C/[C@H]1C(C(C)(C)O)CC[C@]1(C)O (some centres undefined) gave a TGI of over 100 µM.
Work on O=C1C(CN2CCCCC2)CCC1CN1CCCCC1 (centres undefined) yielded a TGI of 37 µM.
In the case of CC1=NNC(N)=N/C1=C\C(Sc1ccc(Cl)cc1)c1ccc([N+](=O)[O-])cc1 (centres undefined), the TGI is reported as over 100 µM.
For c1ccc2c(c1)ccn2CCc1c[nH]c2ccccc12, the TGI was over 10 µM.
For CC(C)[Si](OC1=C(C(=O)N(C)c2cccc(Cl)c2)CCCC1)(C(C)C)C(C)C, the TGI was 30.4 µM.
Cc1ccc([N+](=O)[O-])cc1S(=O)(=O)Nc1ccc(C2=NNC(c3ccccc3)C2)cc1 (centres undefined) showed a TGI of over 100 µM.
In the case of COc1cc(C(=O)N(Cc2cccnc2)C(=S)N(Cc2cccnc2)C(=O)c2cc(OC)c(OC)c(OC)c2)cc(OC)c1OC, the TGI is reported as over 100 µM.
Work on COc1cc(CNCc2cc(OC)c(OC)c(OC)c2)cc(OC)c1OC yielded a TGI of over 10 µM.
Cc1ccc2c(c1)C(C(=O)N[C@@H]1C(=O)N3[C@@H]1SC(C)(C)[C@@H]3C(=O)O)OCCC2 (some centres undefined) gave a TGI of over 100 µM.
O=Cc1ccc2c(c1)CC1(Cc3ccccc3C1)C2 was tested, and the TGI was over 100 µM.
O=C(N/N=C\c1cccc2c([N+](=O)[O-])cccc12)Nc1ccccc1 was tested, and the TGI was 27.3 µM.
